Data as given in patent US8586579B2, “Anellated pyridine compounds” (Hoffmann-La Roche Inc., priority 2010, dated 2013).
Like-named read-outs stand apart in the source and are kept apart here.

Key:
human D2 receptor = human D2 receptor (Homo sapiens (Human), UniProt P14416); experiment: Radioligand binding assay, [3H]-spiperone, human D2 receptor; details: membranes of HEK293 EBNA cells expressing human D2; 0.7 nM [3H]-spiperone
Experimental: (§1) HEK293 EBNA cells were transiently transfected with expression plasmids encoding for the human D2 or D3 or for the human 5-HT2A receptor, respectively. The cells were harvested 48 h post-transfection, washed three times with cold PBS and stored at −80° C. prior to use. The pellet was suspended in cold 50 mM Tris-HCl buffer comprising 10 mM EDTA (pH 7.4) and was homogenized with a Polytron (Kinematica AG, Basel, Switzerland) for 20-30 sec at 12.000 rpm. After centrifugation at 48.000×g for 30 min at 4° C., the pellet was resuspended in cold 10 mM Tris-HCl buffer comprising 0.1 mM EDTA (pH 7.4), homogenized, and centrifuged as above. This pellet was further resuspended in a smaller volume of ice cold 10 mM Tris-HCl buffer comprising 0.1 mM EDTA (pH 7.4) and homogenized with a Polytron for 20-30 sec at 12.000 rpm. The protein content of this homogenate was determined with the Bio-Rad (Bradford) Protein Assay (Biorad Laboratories GmbH, München, Germany) according to the instructions of the manufacturer using gamma globulin as the standard. This homogenate was stored at −80° C. in aliquots and thawed immediately prior to use.
(§2) Aliquots of membrane preparations were thawed at RT, resuspended in assay buffer (D2, D3: 50 mM Tris-HCl, 120 mM NaCl, 5 mM MgCl2, 1 mM EDTA, 5 mM KCl, 1.5 mM CaCl2, pH=7.4; 5-HT2A: 50 mM Tris-HCl, 10 mM MgCl2, 1 mM EGTA, pH=7.4), homogenized with a Polytron for 20-30 sec at 12.000 rpm and adjusted to a final concentration of approximately 7.5 μg protein/well (D2, D3) and 15 μg protein/well (5-HT2A), respectively.
(§3) The binding affinity (Ki) of the compounds was determined using radioligand binding. Membranes were incubated in a total volume of 200 μl with a fixed concentration of radioligand (final concentration approximately 0.7 nM [^3H]-spiperone for D2, 0.5 nM [^3H]-spiperone for D3, and 1.1 nM [^3H]-ketanserin for 5-HT2A) and ten concentrations of test compound in ranging between 10 μM-0.1 nM for 1 h at RT. […] The nonspecific binding was determined with equally composed reaction mixtures in the presence of 10 μM unlabelled spiperone. Per well 45 μl of Microscint 40 (Perkin Elmer, Schwerzenbach, Switzerland) was added, plates for sealed, shaken for 20 min and counted for 3 min on a Topcount Microplate Scintillation Counter (Can berra Packard SA, Zürich, Switzerland) with quenching correction.
(§4) The CPM value for each duplicate of a concentration of competing compound was averaged (y1), then the % specific binding was calculated according to the equation (((y1−non-specific)/(total binding−non-specific))×100). Graphs were plotted with the % specific binding using XLfit, a curve fitting program that iteratively plots the data using Levenberg-Marquardt algorithm. […] The affinity constant (K) was calculated using the Cheng-Prusoff equation Ki=(IC50/1+([L]/Kd), where [L] is the concentration of radioligand and Kd is the dissociation constant of the radioligand at the receptor as determined by the saturation isotherm.

human 5-HT2A receptor = human 5-HT2A receptor (Homo sapiens (Human), UniProt P28223); experiment: Radioligand binding assay, [3H]-ketanserin, human 5-HT2A receptor
Sequence of human 5-HT2A receptor (P28223 whole entry): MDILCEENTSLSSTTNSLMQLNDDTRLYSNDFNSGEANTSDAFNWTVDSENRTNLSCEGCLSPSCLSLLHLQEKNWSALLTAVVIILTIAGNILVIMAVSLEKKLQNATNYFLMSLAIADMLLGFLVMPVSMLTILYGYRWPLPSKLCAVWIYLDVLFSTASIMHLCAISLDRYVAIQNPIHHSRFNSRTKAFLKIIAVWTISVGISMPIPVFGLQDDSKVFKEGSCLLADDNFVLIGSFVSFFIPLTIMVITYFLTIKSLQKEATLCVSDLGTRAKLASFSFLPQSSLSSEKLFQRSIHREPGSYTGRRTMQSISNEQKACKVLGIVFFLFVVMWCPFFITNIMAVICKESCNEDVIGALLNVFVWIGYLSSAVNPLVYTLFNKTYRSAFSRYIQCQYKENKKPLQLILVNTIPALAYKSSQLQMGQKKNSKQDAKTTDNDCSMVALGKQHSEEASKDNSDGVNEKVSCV
Experimental: as §1, §2, §3
as §4, with “algorithm. The single site competition analysis equation used was y=A+((B−A)/(1+((x/C)D))), where y is the % specific binding, A is the minimum y, B is the maximum y, C is the IC50, x is the log 10 of the concentration of the competing compound and D is the slope of the curve (the Hill Coefficient).” for “algorithm.”

human D3 receptor = human D3 receptor (Homo sapiens (Human), UniProt P35462); experiment: Radioligand binding assay, [3H]-spiperone, human D3 receptor; details: membranes of HEK293 EBNA cells expressing human D3; 0.5 nM [3H]-spiperone
Sequence of human D3 receptor (P35462 whole entry): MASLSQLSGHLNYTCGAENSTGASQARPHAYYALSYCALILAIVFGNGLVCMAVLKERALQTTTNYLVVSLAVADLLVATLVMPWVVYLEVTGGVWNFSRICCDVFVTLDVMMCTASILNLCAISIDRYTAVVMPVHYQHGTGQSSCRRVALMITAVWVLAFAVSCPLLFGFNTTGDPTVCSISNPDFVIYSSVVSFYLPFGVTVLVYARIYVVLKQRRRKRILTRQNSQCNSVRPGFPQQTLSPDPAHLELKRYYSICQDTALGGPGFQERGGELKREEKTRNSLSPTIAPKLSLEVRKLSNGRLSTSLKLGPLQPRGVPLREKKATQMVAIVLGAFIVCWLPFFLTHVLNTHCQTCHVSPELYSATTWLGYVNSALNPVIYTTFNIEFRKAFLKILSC
Experimental: as §1, §2, §3
as §4, with “algorithm. The single site competition analysis equation used was y=A+((B−A)/(1+((x/C)D))), where y is the % specific binding, A is the minimum y, B is the maximum y, C is the IC50, x is the log 10 of the concentration of the competing compound and D is the slope of the curve (the Hill Coefficient).” for “algorithm.”

[1] = membranes of HEK293 EBNA cells expressing human 5-HT2A, 1.1 nM [3H]-ketanserin

Sequence of human D2 receptor (P14416 whole entry): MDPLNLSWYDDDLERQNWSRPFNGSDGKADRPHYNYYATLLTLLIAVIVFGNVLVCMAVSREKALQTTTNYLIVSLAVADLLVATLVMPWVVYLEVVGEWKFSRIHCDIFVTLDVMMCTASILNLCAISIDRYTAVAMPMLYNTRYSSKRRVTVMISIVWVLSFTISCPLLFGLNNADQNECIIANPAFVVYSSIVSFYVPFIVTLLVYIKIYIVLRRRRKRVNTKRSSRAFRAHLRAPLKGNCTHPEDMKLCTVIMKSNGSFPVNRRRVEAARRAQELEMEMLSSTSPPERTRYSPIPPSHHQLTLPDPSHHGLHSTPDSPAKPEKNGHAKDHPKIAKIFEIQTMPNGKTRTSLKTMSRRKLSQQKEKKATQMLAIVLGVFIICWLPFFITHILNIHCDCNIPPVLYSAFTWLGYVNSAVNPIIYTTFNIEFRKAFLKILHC

Row | SMILES | Ki (human D2 receptor) [µM] | melting point [°C] | Ki (human 5-HT2A receptor) [µM] | Ki (human D3 receptor) [µM] | Ki (human 5-HT2A receptor; [1]) [µM]
1 | CCS(=O)(=O)N[C@H]1CC[C@H](CCN2CCN(c3nccc4c3CCO4)CC2)CC1 [Example 49, Ethanesulfonic acid trans-(4-{2-[4-(2,3-dihydro-furo[3,2-c]pyridin-4-yl)-piperazin-1-yl]-ethyl}-cyclohexyl)-amide] | 1.09 | 224 | 0.0176 | 0.022 | 
2 | O=C(N[C@H]1CC[C@H](CCN2CCN(c3nccc4c3CCO4)CC2)CC1)C(O)C(F)(F)F (mixture of isomers) [Example 112, trans-(RS)—N-(4-{2-[4-(2,3-Dihydro-furo[3,2-c]pyridin-4-yl)-piperazin-1-yl]-ethyl}-cyclohexyl)-3,3,3-trifluoro-2-hydroxy-propionamide] |  | 204 |  | 0.0379 | 
3 | O=C(C[C@@H]1COCCO1)N[C@H]1CC[C@H](CCN2CCN(c3nccc4c3CCO4)CC2)CC1 [Example 61, trans-N-(4-{2-[4-(2,3-Dihydro-furo[3,2-c]pyridin-4-yl)-piperazin-1-yl]-ethyl}-cyclohexyl)-2-(R)-[1,4]dioxan-2-yl-acetamide] | 1.12 | 193.5 |  |  | 0.0118
4 | O=C(N[C@H]1CC[C@H](CCN2CCN(c3nccc4c3CCO4)CC2)CC1)C1CCCO1 (mixture of isomers) [Example 43, trans-N-(4-{2-[4-(2,3-Dihydrofuro[3,2-c]pyridin-4-yl)-piperazin-1-yl]-ethyl}-cyclohexyl)-rac-tetrahydrofuran-2-carboxamide] |  | 176.5 |  |  | 0.0063
5 | O=C(N[C@H]1CC[C@H](CCN2CCN(c3nccc4c3CCO4)CC2)CC1)C1CCCOC1 (mixture of isomers) [Example 53, rac-Tetrahydro-pyran-3-carboxylic acid trans-(4-{2-[4-(2,3-dihydro-furo[3,2-c]pyridin-4-yl)-piperazin-1-yl]-ethyl}-cyclohexyl)-amide] |  | 216 |  | 0.0288 | 
6 | O=C(C[C@H]1COCCO1)N[C@H]1CC[C@H](CCN2CCN(c3nccc4c3CCO4)CC2)CC1 [Example 67, trans-N-(4-{2-[4-(2,3-Dihydro-furo[3,2-c]pyridin-4-yl)-piperazin-1-yl]-ethyl}-cyclohexyl)-2-(S)-[1,4]dioxan-2-yl-acetamide] | 1.46 | 192 |  |  | 0.00815
7 | CO[C@@H]1CC[C@@H](CC(=O)N[C@H]2CC[C@H](CCN3CCN(c4nccc5sccc45)CC3)CC2)C1 (racemic) [Example 21, 2-(trans-3-Methoxy-cyclopentyl)-N-{trans-4-[2-(4-thieno[3,2-c]pyridin-4-yl-piperazin-1-yl)-ethyl]-cyclohexyl}-acetamide] | 0.271 |  |  | 0.0036 | 0.0037
8 | CCS(=O)(=O)N[C@H]1CC[C@H](CCN2CCN(c3nccc4occc34)CC2)CC1 [Example 16, Ethanesulfonic acid {trans-4-[2-(4-furo[3,2-c]pyridin-4-yl-piperazin-1-yl)-ethyl]-cyclohexyl}-amide] | 0.78 |  |  | 0.0306 | 0.0085
9 | O=C(N[C@H]1CC[C@H](CCN2CCN(c3nccc4c3CCO4)CC2)CC1)c1ccnc2ccccc12 [Example 62, Quinoline-4-carboxylic acid trans-(4-{2-[4-(2,3-dihydro-furo[3,2-c]pyridin-4-yl)-piperazin-1-yl]-ethyl}-cyclohexyl)-amide] |  | 210 |  | 0.0107 | 0.00362
10 | CCS(=O)(=O)N[C@H]1CC[C@H](CCN2CCN(c3nccc4sccc34)CC2)CC1 [Example 31, Ethanesulfonic acid {trans-4-[2-(4-thieno[3,2-c]pyridin-4-yl-piperazin-1-yl)-ethyl]-cyclohexyl}-amide] | 0.217 |  |  | 0.0043 | 0.0029
11 | O=C(C[C@H]1CC[C@H](O)CC1)N[C@H]1CC[C@H](CCN2CCN(c3nccc4sccc34)CC2)CC1 [Example 28, 2-(trans-4-Hydroxy-cyclohexyl)-N-{trans-4-[2-(4-thieno[3,2-c]pyridin-4-yl-piperazin-1-yl)-ethyl]-cyclohexyl}-acetamide] | 0.392 |  |  | 0.006 | 0.004
12 | O=C(N[C@H]1CC[C@H](CCN2CCN(c3nccc4sccc34)CC2)CC1)C1CCOCC1 [Example 24, Tetrahydro-pyran-4-carboxylic acid {trans-4-[2-(4-thieno[3,2-c]pyridin-4-yl-piperazin-1-yl)-ethyl]-cyclohexyl}-amide] | 0.992 |  | 0.0017 | 0.0036 | 
13 | COCCC(=O)N[C@H]1CC[C@H](CCN2CCN(c3nccc4sccc34)CC2)CC1 [Example 19, 3-Methoxy-N-{trans-4-[2-(4-thieno[3,2-c]pyridin-4-yl-piperazin-1-yl)-ethyl]-cyclohexyl}-propionamide] | 0.305 |  | 0.0035 | 0.0019 | 
14 | O=C(N[C@H]1CC[C@H](CCN2CCN(c3nccc4occc34)CC2)CC1)c1ccnc2ccccc12 [Example 29, Quinoline-4-carboxylic acid {trans-4-[2-(4-furo[3,2-c]pyridin-4-yl-piperazin-1-yl)-ethyl]-cyclohexyl}-amide] | 0.461 |  |  | 0.0232 | 0.0053
15 | CO[C@H]1CC[C@H](CC(=O)N[C@H]2CC[C@H](CCN3CCN(c4nccc5sccc45)CC3)CC2)CC1 [Example 20, 2-(trans-4-Methoxy-cyclohexyl)-N-{trans-4-[2-(4-thieno[3,2-c]pyridin-4-yl-piperazin-1-yl)-ethyl]-cyclohexyl}-acetamide] | 0.302 |  |  | 0.003 | 0.0025
16 | O=C(N[C@H]1CC[C@H](CCN2CCN(c3nccc4c3CCO4)CC2)CC1)c1ccc(Cl)cc1Cl [Example 132, trans-2,4-Dichloro-N-(4-{2-[4-(2,3-dihydro-furo[3,2-c]pyridin-4-yl)-piperazin-1-yl]-ethyl}-cyclohexyl)-benzamide] |  | 203.5 |  | 0.0267 | 0.0217
17 | O=C(CC1COCCO1)N[C@H]1CC[C@H](CCN2CCN(c3nccc4c3CCO4)CC2)CC1 (mixture of isomers) [Example 37, trans-N-(4-{2-[4-(2,3-Dihydrofuro[3,2-c]pyridin-4-yl)-piperazin-1-yl]-ethyl}-cyclohexyl)-2-(rac-1,4-dioxan-2-yl)-acetamide] | 1.47 | 186 |  |  | 0.0097
18 | O=C(CO)N[C@H]1CC[C@H](CCN2CCN(c3nccc4sccc34)CC2)CC1 [Example 27, 2-Hydroxy-N-{trans-4-[2-(4-thieno[3,2-c]pyridin-4-yl-piperazin-1-yl)-ethyl]-cyclohexyl}-acetamide] | 0.218 |  |  | 0.0014 | 0.0014
19 | CO[C@@H]1CC[C@@H](CC(=O)N[C@H]2CC[C@H](CCN3CCN(c4nccc5occc45)CC3)CC2)C1 (racemic) [Example 2, N-{trans-4-[2-(4-Furo[3,2-c]pyridin-4-yl-piperazin-1-yl)-ethyl]-cyclohexyl}-2-(trans-3-methoxy-cyclopentyl)-acetamide] | 0.802 |  |  | 0.0288 | 0.0064
